System: male hamster auricular skin tissue sections containing sebaceous glands
Test: Sebum production inhibitory effect on hamster auricular skin tissue sections (radiolabeled acetate incorporation, method of Hall et al.)
Type: cell-based
Settings: cultured 3 hours in Krebs-Ringer phosphate buffer, vs left auricula control
Protocol: Compounds of the present invention (Compound Nos. 1-10) were evaluated for sebum production inhibitory effect on hamster auricular skin tissue sections containing sebaceous glands.
The method of Hall et al. (Hall, D. W. R., Van den Hoven, W. E., Noordzij-Kamermans, N. J., Jaitly, K. D., Arch. Dermatol. Res., 275, 1 (1983)) was followed. Namely, male hamster auricular skin tissue sections (3 mm in diameter) containing sebaceous glands were cultured for 3 hours in Krebs-Ringer phosphate buffer containing radioactively labeled sodium acetate, and then tissues were hydrolyzed and extracted with hexane. The radioactively labeled fat levels in hexane were measured in a liquid scintillation counter to determine fat production inhibition levels in sebaceous glands. Skin tissues isolated from the right auricula were cultured in Krebs-Ringer phosphate buffer containing 0.01% or 0.05% of compounds of the present invention (Compound Nos. 1-10) (compound systems), while skin tissues from the left auricula of the same hamster were cultured in Krebs-Ringer phosphate buffer containing no compounds of the present invention (control system). The sebum production inhibition percentage was calculated by the equation below from the test data obtained. Sebum production inhibition (%)=[(Sebum production level in control system)−(Sebum production level in each compound system)]/(Sebum production level in control system)×100

[1] = Concentration of compound in the medium 0.01%
[2] = Concentration of compound in the medium 0.05%

`CC(=O)N[C@@H]1[C@@H](O[C@@H]2O[C@H](C(=O)O)[C@@H](O[C@@H]3O[C@H](CO)[C@@H](O)[C@H](O[C@@H]4OC(C(=O)O)=C[C@H](O)[C@H]4O)[C@H]3NC(C)=O)[C@H](O)[C@H]2O)[C@H](O)[C@@H](CO)O[C@H]1O` [compound 1, 4-deoxy-α-L-threo-hexa-4-enepyranuronosyl-(1→3)-O-2-acetamide-2-deoxy-β-D-glucopyranosyl-(1→4)-3-O-β-D-glucopyranuronosyl-(1→3)-O-2-acetamide-2-deoxy-β-D-glucopyranose] was tested, and the “Sebum production inhibition (%)” value [1] was 15.7% and the “Sebum production inhibition (%)” value [2] was 17.8%.

`CC(=O)N[C@@H]1[C@@H](O[C@@H]2O[C@H](C(=O)O)[C@@H](O[C@@H]3O[C@H](CO)[C@@H](O)[C@H](O[C@@H]4O[C@H](C(=O)O)[C@@H](O[C@@H]5O[C@H](CO)[C@@H](O)[C@H](O[C@@H]6OC(C(=O)O)=C[C@H](O)[C@H]6O)[C@H]5NC(C)=O)[C@H](O)[C@H]4O)[C@H]3NC(C)=O)[C@H](O)[C@H]2O)[C@H](O)[C@@H](CO)O[C@H]1O` [compound 2, 4-deoxy-α-L-threo-hexa-4-enepyranuronosyl-(1→3)-O-2-acetamide-2-deoxy-β-D-glucopyranosyl-(1→4)-3-O-β-D-glucopyranuronosyl-(1→3)-O-2-acetamide-2-deoxy-β-D-glucopyranosyl-(1→4)-3-O-β-D-glucopyranuronosyl-(1→3)-O-2-acetamide-2-deoxy-β-D-glucopyranose] was tested, and the “Sebum production inhibition (%)” value [1] was 28.6% and the “Sebum production inhibition (%)” value [2] was 50.1%.

For `CC(=O)N[C@@H]1[C@@H](O[C@@H]2O[C@H](C(=O)O)[C@@H](O[C@@H]3O[C@H](CO)[C@@H](O)[C@H](O[C@@H]4O[C@H](C(=O)O)[C@@H](O[C@@H]5O[C@H](CO)[C@@H](O)[C@H](O[C@@H]6O[C@H](C(=O)O)[C@@H](O[C@@H]7O[C@H](CO)[C@@H](O)[C@H](O[C@@H]8OC(C(=O)O)=C[C@H](O)[C@H]8O)[C@H]7NC(C)=O)[C@H](O)[C@H]6O)[C@H]5NC(C)=O)[C@H](O)[C@H]4O)[C@H]3NC(C)=O)[C@H](O)[C@H]2O)[C@H](O)[C@@H](CO)O[C@H]1O` [compound 3, 4-deoxy-α-L-threo-hexa-4-enepyranuronosyl-(1→3)-O-2-acetamide-2-deoxy-β-D-glucopyranosyl-(1→4)-3-O-β-D-glucopyranuronosyl-(1→3)-O-2-acetamide-2-deoxy-β-D-glucopyranosyl-(1→4)-3-O-β-D-glucopyranuronosyl-(1→3)-O-2-acetamide-2-deoxy-β-D-glucopyranosyl-(1→4)-3-O-β-D-glucopyranuronosyl-(1→3)-O-2-acetamide-2-deoxy-β-D-glucopyranose], the “Sebum production inhibition (%)” value [1] was 48.5% and the “Sebum production inhibition (%)” value [2] was 47.7%.

In the case of `CC(=O)N[C@@H]1[C@@H](O[C@@H]2O[C@H](C(=O)O)[C@@H](O[C@@H]3O[C@H](CO)[C@@H](O)[C@H](O[C@@H]4O[C@H](C(=O)O)[C@@H](O[C@@H]5O[C@H](CO)[C@@H](O)[C@H](O[C@@H]6O[C@H](C(=O)O)[C@@H](O[C@@H]7O[C@H](CO)[C@@H](O)[C@H](O[C@@H]8O[C@H](C(=O)O)[C@@H](O[C@@H]9O[C@H](CO)[C@@H](O)[C@H](O[C@@H]%10OC(C(=O)O)=C[C@H](O)[C@H]%10O)[C@H]9NC(C)=O)[C@H](O)[C@H]8O)[C@H]7NC(C)=O)[C@H](O)[C@H]6O)[C@H]5NC(C)=O)[C@H](O)[C@H]4O)[C@H]3NC(C)=O)[C@H](O)[C@H]2O)[C@H](O)[C@@H](CO)O[C@H]1O` [compound 4], the “Sebum production inhibition (%)” value [1] is reported as 53.4% and the “Sebum production inhibition (%)” value [2] is reported as 51.0%.

In the case of `CC(=O)N[C@H]1[C@H](O[C@H]2[C@H](O)[C@@H](O)[C@H](O[C@@H]([C@H](O)[C@H](O)CO)[C@H](CO)NC(C)=O)O[C@@H]2C(=O)O)O[C@H](CO)[C@@H](O)[C@@H]1O[C@@H]1OC(C(=O)O)=C[C@H](O)[C@H]1O` [compound 5, 4-deoxy-α-L-threo-hexa-4-enepyranuronosyl-(1→3)-O-2-acetamide-2-deoxy-β-D-glucopyranosyl-(1→4)-3-O-β-D-glucopyranuronosyl-(1→3)-O-2-acetamide-2-deoxy-β-D-glucopyranitol], the “Sebum production inhibition (%)” value [1] is reported as 16.2% and the “Sebum production inhibition (%)” value [2] is reported as 18.1%.

In the case of `CC(=O)N[C@H]1[C@H](O[C@H]2[C@H](O)[C@@H](O)[C@H](O[C@@H]([C@H](O)[C@H](O)CO)[C@H](CO)NC(C)=O)O[C@@H]2C(=O)O)O[C@H](CO)[C@@H](O)[C@@H]1O[C@@H]1O[C@H](C(=O)O)[C@@H](O[C@@H]2O[C@H](CO)[C@@H](O)[C@H](O[C@@H]3OC(C(=O)O)=C[C@H](O)[C@H]3O)[C@H]2NC(C)=O)[C@H](O)[C@H]1O` [compound 6, 4-deoxy-α-L-threo-hexa-4-enepyranuronosyl-(1→3)-O-2-acetamide-2-deoxy-β-D-glucopyranosyl-(1→4)-3-O-β-D-glucopyranuronosyl-(13)-O-2-acetamide-2-deoxy-β-D-glucopyranosyl-(1→4)-3-O-β-D-glucopyranuronosyl-(1→3)-O-2-acetamide-2-deoxy-β-D-glucopyranitol], the “Sebum production inhibition (%)” value [1] is reported as 30.8% and the “Sebum production inhibition (%)” value [2] is reported as 55.7%.

`CC(=O)N[C@H]1[C@H](O[C@H]2[C@H](O)[C@@H](O)[C@H](O)O[C@@H]2C(=O)O)O[C@H](CO)[C@@H](O)[C@@H]1O[C@@H]1OC(C(=O)O)=C[C@H](O)[C@H]1O` [compound 7, 4-deoxy-α-L-threo-hexa-4-enepyranuronosyl-(1-3)-O-2-acetamide-2-deoxy-β-D-glucopyranosyl-(1→4)-3-O-β-D-glucopyranuronic acid] was tested, and the “Sebum production inhibition (%)” value [1] was 14.2% and the “Sebum production inhibition (%)” value [2] was 15.9%.

In the case of `CC(=O)N[C@H]1[C@H](O[C@H]2[C@H](O)[C@@H](O)[C@H](O)O[C@@H]2C(=O)O)O[C@H](CO)[C@@H](O)[C@@H]1O[C@@H]1O[C@H](C(=O)O)[C@@H](O[C@@H]2O[C@H](CO)[C@@H](O)[C@H](O[C@@H]3OC(C(=O)O)=C[C@H](O)[C@H]3O)[C@H]2NC(C)=O)[C@H](O)[C@H]1O` [compound 8, 4-deoxy-α-L-threo-hexa-4-enepyranuronosyl-(1-3)-O-2-acetamide-2-deoxy-β-D-glucopyranosyl-(1-4)-3-O-β-D-glucopyranuronosyl-(13)-O-2-acetamide-2-deoxy-β-D-glucopyranosyl-(1→4)-3-O-β-D-glucopyranuronic acid], the “Sebum production inhibition (%)” value [1] is reported as 30.7% and the “Sebum production inhibition (%)” value [2] is reported as 56.6%.

`CC(=O)N[C@H]1[C@H](O[C@@H]([C@H](O)[C@@H](O)CO)[C@H](O)C(=O)O)O[C@H](CO)[C@@H](O)[C@@H]1O[C@@H]1OC(C(=O)O)=C[C@H](O)[C@H]1O` [compound 9, 4-deoxy-α-L-threo-hexa-4-enepyranuronosyl-(1→3)-O-2-acetamide-2-deoxy-β-D-glucopyranosyl-(1→4)-3-O-β-D-glucopyranuronitol] was tested, and the “Sebum production inhibition (%)” value [1] was 13.9% and the “Sebum production inhibition (%)” value [2] was 20.0%.

For `CC(=O)N[C@H]1[C@H](O[C@@H]([C@H](O)[C@@H](O)CO)[C@H](O)C(=O)O)O[C@H](CO)[C@@H](O)[C@@H]1O[C@@H]1O[C@H](C(=O)O)[C@@H](O[C@@H]2O[C@H](CO)[C@@H](O)[C@H](O[C@@H]3OC(C(=O)O)=C[C@H](O)[C@H]3O)[C@H]2NC(C)=O)[C@H](O)[C@H]1O` [compound 10, 4-deoxy-α-L-threo-hexa-4-enepyranuronosyl-(1→3)-O-2-acetamide-2-deoxy-β-D-glucopyranosyl-(1→4)-3-O-β-D-glucopyranuronosyl-(1→3)-O-2-acetamide-2-deoxy-β-D-glucopyranosyl-(1→4)-3-O-β-D-glucopyranuronitol], the “Sebum production inhibition (%)” value [1] was 39.8% and the “Sebum production inhibition (%)” value [2] was 55.1%.

Source: US6894034B1, “Sebum production inhibitors” (Maruha Corporation, priority 1999, dated 2005)
